Reference: patent publication US10111885B2, “Compositions and therapeutic methods for the treatment of complement-associated diseases” (Resverlogix Corp., priority 2015, dated 2018)

Legend:
complement C3 mRNA = experiment: Complement mRNA expression in primary human hepatocytes; assay type: cell-based; conditions: 0.3 uM, maximum at 24 h, single donor
Protocol: (§1) Huh-7 and HepG2 cells are liver-derived cell lines and are models for what can occur in the liver. Huh-7 cells (JCRB Cell Bank) were introduced to 96-well plates (^˜2.5×10^5 per well) in 100 μL DMEM containing 10% (v/v) FBS, 100 U/mL penicillin, 100 ug/mL streptomycin and 5 ug/mL plasmocin (all reagents from Gibco, except for the former, which was obtained from Invivogen). After 24 h, Huh-7 cells were treated with compounds in the same media formulation used for plating, and supplemented with 0.1% DMSO for the amount of time indicated in tables 2, 3, and 4. For select experiments, 24 h post-plating, cells were treated with cytokines and the compound of interest simultaneously, for a total treatment time of 48 h. Alternatively, 24 h after plating, cells were pre-treated with cytokines for 24 h before adding the compound of interest for 48 h. HepG2 cells (ATCC) were cultured in 96-well plates (^˜2.5×10^5 per well) in MEM containing 10% FBS, 1× non-essential amino acids, 1 mM sodium pyruvate, 2 mM L-glutamine, 100 U/mL penicillin, 100 ug/mL streptomycin and 5 ug/mL plasmocin. Serum amount was reduced to 0.5% for treatments with compound or cytokines. Timing of treatment of HepG2 cells with compounds and cytokines was as described for Huh-7 cells. Primary human hepatocytes (CellzDirect/Life Technologies) were plated in collagen coated 96-well plates at 70 000 cells/well, then overlaid with Matrigel™ as recommended by the supplier. Cells were treated with compounds of interest and/or cytokines for the indicated time points in the recommended media supplemented with 0.1% DMSO and 10% FBS (v/v). Cells were harvested by mRNA Catcher PLUS Kit (Life Technologies) followed by real-time PCR using the RNA UltraSense One-Step qRT-PCR System. The level of the mRNA of interest was measured by TaqMan real-time PCR relative to the endogenous control cyclophilin A in the same sample.

complement C4 mRNA = experiment: as above; assay type: cell-based; conditions: 0.3 uM, maximum at 24 h, single donor
Protocol: as §1

complement C9 mRNA = experiment: as above; assay type: cell-based; conditions: 0.3 uM, maximum at 48 h, single donor
Protocol: as §1

[1] = tested on: classical complement system hemolytic activity (sensitized sheep erythrocytes); experiment: Total hemolytic complement (CH50) assay on clinical serum samples; assay type: in vivo, human; conditions: ASSURE trial, 26 weeks vs baseline
Protocol: The method can be used to determine the effect of compounds, including those in the present invention, on the activity of the classical and alternative complement system in clinical samples. […] Using the CH50 screening assay to detect the hemolysis of sheep erythrocytes sensitized by specific antibodies, the hemolytic activity of the complement system in serum samples from treated and untreated subjects was measured. Likewise, using specific conditions to activate only the alternative pathway (AH50), activity of the complement response was measured. The degree of complement activation was measured at baseline and terminally to determine if there were any changes in the function of the complement system following drug treatment (FIG. 7). Reduced function of the complement system constitutes a positive result.

CD59 mRNA = experiment: Microarray analysis of ex-vivo treated human whole blood; assay type: cell-based; conditions: 20 uM, 24 h
Protocol: (§2) In this example, RNA from human whole blood treated ex vivo was analyzed by microarray. The method can be used to determine the effect of compounds, including those in the present invention, on RNA levels (Table 6).
(§3) After obtaining informed consent, whole blood was collected from three healthy volunteers into BD Vacutainer Sodium Heparin tubes and samples were inverted 10 times. Blood samples (1 mL) were combined with 1 mL of RPMI containing 2 mM glutamine, 100 U/mL penicillin, 100 ug/mL streptomycin, 20% FBS and the compound of interest or vehicle (0.1% DMSO), followed by a 24 h incubation at 37° C. Treated samples were transferred to a PAXgene RNA tube (PreAnalytix/Qiagen), inverted 5 times and frozen. RNA was isolated with the PAXgene RNA kit according to manufacturer's instructions. Microarray analysis was performed by Asuragen (Austin, Tex.) using the Affymetrix Human […]. Shown in Table 6 is the mean of 3 independent samples (p<0.01). Downregulation of expression of components of the complement cascade will result in reduced activity of the pathway and thus will constitute a positive result. Upregulation of negative regulators or downregulation of positive regulators of the pathway will also result in reduced activity of the pathway and thus will constitute a positive result.

CD55 mRNA = experiment: as above; assay type: cell-based; conditions: 20 uM, 24 h
Protocol: as §2, §3

[2] = tested on: Complement component 3 (C3) mRNA; experiment: as above; assay type: cell-based; conditions: 20 uM, 24 h
Protocol: as §2, §3

Complement factor B = experiment: Plasma protein quantitation by LC-MRM/MS, ASSURE trial; assay type: in vivo, human; conditions: week 26 vs. baseline, trending p 0.06
Protocol: (§4) The method can be used to determine the effect of compounds, including those in the present invention, on the levels of various analytes found in plasma.
(§5) Using mass spectrometric methods, including multiple reaction monitoring (MRM) mass spectrometry (MRM-MS), each sample is analyzed for the presence and amount of 43 different plasma proteins. The changes in values for each protein analyte are calculated versus the baseline measure, and statistically significant (p<0.05) and trending (0.10>p>0.05) values are reported (Table 9). Downregulation of expression of components of the complement cascade will result in reduced activity of the pathway and thus will constitute a positive result.

[3] = tested on: Complement component C8 alpha chain; experiment: as above; assay type: in vivo, human; conditions: week 26 vs. baseline
Protocol: as §4, §5

[4] = tested on: Complement component C8 beta chain; experiment: as above; assay type: in vivo, human; conditions: week 26 vs. baseline
Protocol: as §4, §5

[5] = tested on: Complement C1r subcomponent; experiment: as above; assay type: in vivo, human; conditions: week 26 vs. baseline
Protocol: as §4, §5

Complement C5 = experiment: as above; assay type: in vivo, human; conditions: week 26 vs. baseline
Protocol: as §4, §5

Complement C3 = experiment: as above; assay type: in vivo, human; conditions: week 26 vs. baseline
Protocol: as §4, §5

Complement factor I = experiment: as above; assay type: in vivo, human; conditions: week 26 vs. baseline
Protocol: as §4, §5

Complement factor H = experiment: as above; assay type: in vivo, human; conditions: week 26 vs. baseline
Protocol: as §4, §5

Complement component C9 = experiment: as above; assay type: in vivo, human; conditions: week 26 vs. baseline
Protocol: as §4, §5

Complement C4-B = experiment: as above; assay type: in vivo, human; conditions: week 26 vs. baseline
Protocol: as §4, §5

Structure (SMILES): Cc1sc2c(c1C)C(c1ccc(Cl)cc1)=N[C@@H](CC(=O)OC(C)(C)C)c1nnc(C)n1-2 [JQ1, (S)-tert-butyl 2-(4-(4-chlorophenyl)-2,3,9-trimethyl-6H-thieno[3,2-f][1,2,4]triazolo[4,3-a][1,4]diazepin-6-yl)acetate, reference compound]
- C3 percent maximal reduction in gene expression (complement C3 mRNA): 54% (24 h)
- C4 percent maximal reduction in gene expression (complement C4 mRNA): 31% (24 h)
- C9 percent maximal reduction in gene expression (complement C9 mRNA): 72% (48 h)

Structure (SMILES): COc1cc(OC)c2c(=O)[nH]c(-c3cc(C)c(OCCO)c(C)c3)nc2c1 [RVX000222, 2-(4-(2-hydroxyethoxy)-3,5-dimethylphenyl)-5,7-dimethoxyquinazolin-4(3H)-one]
- complement activity in clinical samples, CHSO assay (FIG. 7B) [1]: reduces complement activity
- CD59 % change in expression (CD59 mRNA): 88%
- CD55 % change in expression (CD55 mRNA): 58%
- Complement component 3 (C3) % change in expression [2]: −59%
- Complement factor B Change from baseline (Complement factor B): −4,259 ng/mL
- Complement factor B Percent Change from baseline (Complement factor B): −4.2%
- Complement component C8 alpha chain Change from baseline [3]: -120 ng/mL
- Complement component C8 alpha chain Percent Change from baseline [3]: −8.6%
- Complement component C8 beta chain Change from baseline [4]: -341 ng/mL
- Complement component C8 beta chain Percent Change from baseline [4]: −3.9%
- Complement C1r subcomponent Change from baseline [5]: -571 ng/mL
- Complement C1r subcomponent Percent Change from baseline [5]: −3.6%
- Complement C5 Change from baseline (Complement C5): −2,228 ng/mL
- Complement C5 Percent Change from baseline (Complement C5): −5.3%
- Complement C3 Change from baseline (Complement C3): −34,105 ng/mL
- Complement C3 Percent Change from baseline (Complement C3): −3.6%
- Complement factor I Change from baseline (Complement factor I): −1,205 ng/mL
- Complement factor I Percent Change from baseline (Complement factor I): −5.2%
- Complement factor H Change from baseline (Complement factor H): −8,710 ng/mL
- Complement factor H Percent Change from baseline (Complement factor H): −4.2%
- Complement component C9 Change from baseline (Complement component C9): −5,034 ng/mL
- Complement component C9 Percent Change from baseline (Complement component C9): −13.8%
- Complement C4-B Change from baseline (Complement C4-B): −7,492 ng/mL
- Complement C4-B Percent Change from baseline (Complement C4-B): −4.3%
